The values below come from patent publication US20190151289A1, “Identification of Small Molecule Inhibitors of Jumonji AT-Rich Interactive Domain 1A (JARID1A) Histone Demethylase” (YALE UNIVERSITY, priority 2016, published 2019).

Holding throughout (format): cell-based, human
One test deals with PC9 cells. As to the kind of experiment: Colony formation assay, PC9 (gefitinib tolerance). As to the method:
(§1) Cells were seeded in 6-well plates at low density: HeLa, MCF7, BT474, and PC9 cells at 1000, 2000, 2500, and 2000 cells/well respectively. Media containing the prescribed drugs or 0.1% DMSO was replaced every 3 days. Trastuzumab was used at 5 μg/ml. Gefitinib was used at 2 μM. YUKA1 was used at 50 or 100 μM. Doxycycline was used at 1 μg/ml for 3 days. After 7-42 days depending on the rate of cell growth, cells were fixed in 4% para-formaldehyde in phosphate-buffered saline for 10 minutes rocking at room temperature. They were incubated in 0.05% crystal violet in double-distilled water for 30 minutes rocking at room temperature, washed with water, and dried 24 hours before photographing. ColonyArea, a plugin for ImageJ software, was used for quantification (Guzman et al., 2014, PloS One 9:e92444). Unpaired, two-tailed student's t-test was used to determine significance using GraphPad Prism 6.0 software.

For a further test, the system named is MCF10A cells. The test can be described thus: WST-1 cell proliferation assay, MCF10A. The following applies: 5 days of treatment. How it is done: WST-1 reagent from Roche Applied Sciences (11644807001) was used to measure cell number before drug addition and after 3 or 5 days of growth using previously described methods (Sayegh et al., 2013, J. Biol. Chem. 9408-9417). Cells were seeded in 96-well plates at the following number of cells per well: HeLa (2000), MCF7 (2000), ZR-75-1 (1000), MCF10A (1000), MDA-MB-231(5000). Assays were performed in technical quadruplicates and biological triplicates. DMSO was used at 0.1%. Relative absorbance was calculated by subtracting the average background (media only) signal, dividing by the average signal on day 0, and then dividing by the average day 5/day 0 ratio for the DMSO controls. Significance was calculated by unpaired, two-tailed student's t-test using GraphPad Prism 6.0 software.
On the technique in general: Formazan colour is commonly taken as a measure of viable cells.

For the next test, the system named is MDA-MB231 cells. The test can be described thus: Colony formation assay, MDA-MB231. The following applies: 5 μM KDMS-C70 or 50 or 100 μM YUKA1. As to the method: as §1
HeLa (FIG. 11A) and MDA-MB231 cells (FIG. 11B) were treated with DMSO, 5 μM KDMS-C70 or 50 or 100 μM YUKA1 in colony-formation assays. The tables in FIGS. 11C and 11D depict the quantification of experimental data.

Test [1] concerns H3K4 methylation in HeLa cells. As to the kind of experiment: Western blot of global H3K4 methylation, HeLa. As to the method: (§2) Sf21 insect cells were cultured at 27° C. in Grace's medium (Gibco) with 10% fetal bovine serum (FBS) and 1% penicillin/streptomycin. HeLa cells were cultured in DMEM (Gibco) with 10% FBS and 1% penicillin/streptomycin. BT474, MCF7, MDA-MB-231, PC9 and ZR-75-1 cells were cultured in RPMI 1640 (Gibco) with 10% FBS and 1% penicillin/streptomycin. MCF10A cells were cultured as using previously described methods (Sayegh et al., 2013, J. Biol. Chem. 9408-9417). All human cells were cultured at 37° C. and 5% carbon dioxide. HeLa and MCF7 cell lines were authenticated using short tandem repeat profiling performed at the DNA Analysis Facility on Science Hill at Yale University. All other human cell lines used were within 10 passages after being obtained from the American Type Culture Collection.
Cells were lysed using previously described methods (Lin et al., 2011, Proc. Natl. Acad. Sci. U.S.A. 108:13379-13386). Histones were separated by centrifugation, resuspended in Laemmeli buffer, and sonicated. Protein concentration of cell lysates was measured by Bradford assay. Samples in Laemmeli buffer were boiled 10 minutes at 95° C. and loaded onto 7% (whole cell lysates) or 18% (histones) SDS-PAGE gels. Membranes were blocked in 4% non-fat milk in Tris-buffered saline with 0.05% Tween (TBS-T) and incubated with primary antibodies in the same buffer or 5% bovine serum albumin in TBS-T overnight at 4° C. Membranes were incubated with secondary anti-rabbit or anti-mouse antibodies for one hour at room temperature. Blots were visualized by Thermo Scientific Pierce ECL Western Blotting Substrate (32106) or EMD Millipore Immobilon Western Chemiluminescent HRP Substrate (WBKLS0100) on film. Signal was quantified using ImageJ software.
In general terms: In western blotting, separated proteins are transferred to a membrane and probed.

The subject of test [2] is H3K4 methylation in MCF10A cells. The test can be described thus: Western blot of global H3K4 methylation, MCF10A. The following applies: 72 hr treatment. As to the method: as §2
(§3) Cells were lysed using previously described methods (Lin et al., 2011, Proc. Natl. Acad. Sci. U.S.A. 108:13379-13386). Histones were separated by centrifugation, resuspended in Laemmeli buffer, and sonicated. Protein concentration of cell lysates was measured by Bradford assay. Samples in Laemmeli buffer were boiled 10 minutes at 95° C. and loaded onto 7% (whole cell lysates) or 18% (histones) SDS-PAGE gels. […] Signal was quantified using ImageJ software.

Test [3] deals with H3K4 methylation in ZR-75-1 cells. As to the kind of experiment: Western blot of global H3K4 methylation, ZR-75-1. The following applies: ZR-75-1, 48 hour treatment. As to the method:
as §2, §3

`C=CCOc1c(CNn2cnnc2S)cccc1OC` [YUKA1, 4-([2-(allyloxy)-3-methoxybenzyl]amino)-4H-1,2,4-triazole-3-thiol]: the “cell growth, compound alone” value in the test with PC9 cells (PC9, compound alone) was “not significantly affected”. Also, the “colony formation under gefitinib vs DMSO control” value in the test on PC9 cells (PC9, long-term treatment with 2 μM gefitinib plus compound) was “fewer YUKA1-treated cells formed colonies”. Besides, in the test with MCF10A cells, the cell proliferation entry is “did not hinder cell proliferation”. For the same molecule, the “growth in colony-formation assay” value in the test on MDA-MB231 cells was “suppresses growth”. Besides, the “H3K4me2 and H3K4me1 levels” value in test [1] (HeLa) is on record as “increased”. In test [1] (HeLa and MCF7 cell lines, western blot), the “cell activity by global H3K4 methylation changes” value is reported as “cell-active”. Also, the “global H3K4me3 levels” value in test [1] (HeLa, 48 hour treatment) was “dose-dependent increase”; in test [3], “increased global H3K4me3 levels”. For the same molecule, in test [2], the H3K4 methylation levels result is “did not affect H3K4 methylation levels”.
